Legend:
[1] = test system: rat spinal cord injury model of overactive bladder; conditions: cited from earlier work
[2] = test system: bladder function of wild type (WT) and EP1 knockout (EP1KO) mice; assay: Cystometry in conscious mice under intravesical instillation of PGE2; format: in vivo, mouse; conditions: intravesical instillation of PGE2 (20 μM)
Description: Animals: Age-matched female EP1 knockout (EP1KO) mice (DBA/1LacJ background) (n=13) and DBA/1LacJ wild type (WT) controls (n=12) were used for the studies. The knockout mice originated from Groton Laboratories, Pfizer Research and Development, the wild type from the Jackson Laboratories, USA. Both strains were delivered through Charles River Laboratories, UK. After arrival, the mice were housed for 6 weeks under identical conditions under a 12 hours light/dark photocycle, food and water were provided ad libitum. The experimental protocol was approved by the Animals Ethics Committee, Lund University.
The knockout and WT mice were randomly divided into 3 groups each. One third received bladder outlet obstruction (BOO) as described below, one third received sham surgery. The remaining mice served as unoperated controls.
At day 5 after the obstruction a polyethylene catheter (PE, ID 0.38 mm, OD 0.61 mm) with a small cuff was inserted in the bladder dome and secured with a purse-string suture (7-0 silk). The obstructing ligature remained in place. The catheter was tunneled subcutaneously, led out on the back of the neck, and surgically secured. Control animals received the bladder catheter 2 days prior to cystometry.
Cystometry: Two days after insertion of the catheter (7 days after creation of the obstruction), the cystometric investigation was performed without any anesthesia or restraint. The mice were placed into a metabolic cage (Gazzada, Buguggiatade, Italy). The bladder catheter was connected to a pressure transducer, which in turn was connected to a Grass® 7E Polygraph recorder. The bladder was continuously filled with saline at room temperature by means of a microinjecton pump (CMA 100, Carnegie Medicine, Solna, Sweden), at a filling speed of 25 μl/min.
The amount of voided urine was measured by means of a fluid collector, connected to a force displacement transducer (FT 03 D; Grass instrument Co., MA, USA). After a stabilization period of 60-80 minutes, in which the bladder was continuously filled, reproducible voiding patterns were achieved and recorded over a period of 30 minutes. The following parameters were measured: Micturition interval (time between 2 voids), baseline pressure (lowest pressure between 2 voids), threshold pressure (pressure immediately before micturition was initiated), micturition pressure (maximum voiding pressure), and micturition volume. Residual urine was emptied manually 3 times at the end of the cystometry and measured. Bladder capacity was calculated as the amount of saline infused into the bladder between 2 voids, plus the average amount of residual urine.
The animals were continuously observed in order to distinguish between moving artifacts and non-voiding bladder contractions. The surface of the collecting-funnel under the grid of the metabolic cage was sprayed with a thin layer of silicone.
Drugs and solutions: PGE2 (Sigma Chemical Company, St. Louis, Mo., USA). PGE2 was dissolved in ethanol, and the stock solution was stored at a concentration of 10^−2 M at −70°. The final dilution of 20 μM was made in NaCl at the day of cystometry. (Normal Krebs solution was composed as following (mM): NaCl 119, KCl 4.6, CaCl2 1.5, MgCl2 1.2, NaHCO3 15, NaH2PO4 1.2, and glucose 11).
Data analysis: All values are reported as the mean±SEM. Statistical significance was determined by Student's t-test and Bonferroni correction as appropriate. P<0.05 was required for statistical significance.

[3] = test system: human bladder; conditions: human volunteers, intravesical administration; cited from earlier work
[4] = test system: rat bladder; conditions: rats, topical administration; cited from earlier work
[5] = test system: bladder of normal rats; conditions: cited from earlier work

SMILES: Cc1cc(Cl)ccc1S(=O)(=O)NC[C@H]1C2CCC(CC2)[C@@H]1/C=C\CCCC(=O)O [ONO-8711]
- bladder overactivity [1]: reduction in bladder overactivity

SMILES: CCCCC[C@H](O)/C=C/[C@H]1[C@H](O)CC(=O)[C@@H]1C/C=C\CCCC(=O)O [PGE2, prostaglandin E2]
- bladder capacity ([2]; EP1 KO control mice): no effect
- induction of non-voiding contractions ([2]; EP1 KO control mice): no induction of non-voiding contractions
- micturition interval ([2]; EP1 KO control mice): no effect
- micturition volume ([2]; EP1 KO control mice): no effect
- bladder capacity ([2]; WT control mice): decreased
- micturition interval ([2]; WT control mice): decreased
- micturition volume ([2]; WT control mice): decreased
- non-voiding contractions ([2]; WT control mice): Frequent non-voiding contractions of high amplitude occurred
- bladder capacity [3]: decreased bladder capacity
- sensations of urgency [3]: gave rise to sensations of urgency
- bladder activity and reflex micturition [4]: bladder hyperactivity and stimulation of reflex micturition

SMILES: CC(=O)NNC(=O)N1Cc2ccccc2Oc2ccc(Cl)cc21 [SC-19220]
- bladder capacity [5]: increased bladder capacity
